Measurements taken from patent US9169463B2, “Stem cell for therapeutic use which is derived from human monocyte, and method for inducing same” (OTSUKA PHARMACEUTICAL CO., LTD., priority 2008, dated 2015).

Tested on: peripheral blood monocytes
Experiment: Comparison of stem cell-inducing activities of various gangliosides (viable cells, CellTiter-Glo)
Assay type: cell-based, human
Conditions: gangliosides 100 μg/ml, rhM-CSF 25 ng/ml, second week of culture
Procedure: More specifically, gangliosides were added to a culture medium at a final concentration of 100 μg/ml, and peripheral blood monocytes were cultured.
rhM-CSF was added thereto at a final concentration of 25 ng/ml. Then, the number of viable cells in the second week of culture was quantified as luciferase activity using CellTiter-Glo (Promega).

Row | Substance | stem cell-inducing activity (number of viable cells as luciferase activity, FIG. 3)
1 | aNeu5Ac(2-3)bDGalp(1-3)bDGalNAc(1-4)[aNeu5Ac(2-3)]bDGalp(1-4)bDGlcp(1-1)Cer [GD1a] | equally-strong stem cell-inducing activities
2 | aNeu5Ac(2-3)bDGalp(1-3)bDGalNAc(1-4)[aNeu5Ac(2-8)aNeu5Ac(2-3)]bDGalp(1-4)bDGlcp(1-1)Cer [GT1b] | equally-strong stem cell-inducing activities
3 | bDGalp(1-3)bDGalNAc[aNeu5Ac(2-3)]bDGalp(1-4)bDGlcp(1-1)Cer [GM1] | equally-strong stem cell-inducing activities
